Experimental data published in PubChem BioAssay (NCI).
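Protocol summary: plate cells (96-well), add compound at 5 concentrations, incubate 48 h, interpolate endpoints linearly. GI50 is the concentration that inhibits growth by half. TGI: concentration producing complete growth inhibition.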

Legend:
Experiment in all cases: growth of human tumour cells (NCI), 48 h
SK-MEL-5 melanoma = system: SK-MEL-5 melanoma
HCT-15 colon = system: HCT-15 colon
UACC-62 melanoma = system: UACC-62 melanoma
CAKI-1 renal = system: CAKI-1 renal
SNB-75 CNS = system: SNB-75 CNS
SF-268 CNS = system: SF-268 CNS
SK-OV-3 ovarian = system: SK-OV-3 ovarian
HCT-116 colon = system: HCT-116 colon
MALME-3M melanoma = system: MALME-3M melanoma
A498 renal = system: A498 renal

Row | SMILES | GI50 (SK-MEL-5 melanoma) [µM] | TGI (SK-MEL-5 melanoma) [µM] | GI50 (HCT-15 colon) [µM] | TGI (HCT-15 colon) [µM] | GI50 (UACC-62 melanoma) [µM] | TGI (UACC-62 melanoma) [µM] | GI50 (CAKI-1 renal) [µM] | TGI (CAKI-1 renal) [µM] | GI50 (SNB-75 CNS) [µM] | TGI (SNB-75 CNS) [µM] | GI50 (SF-268 CNS) [µM] | TGI (SF-268 CNS) [µM] | GI50 (SK-OV-3 ovarian) [µM] | TGI (SK-OV-3 ovarian) [µM] | GI50 (HCT-116 colon) [µM] | TGI (HCT-116 colon) [µM] | TGI (MALME-3M melanoma) [µM] | TGI (A498 renal) [µM] | GI50 (MALME-3M melanoma) [µM] | GI50 (A498 renal) [µM]
1 | O=c1[nH]c(O)c(C=Nc2ccc(-c3nc4ccccc4o3)cc2)c(=O)[nH]1 | 44.8 | > 100 | 32.4 | > 100 | 35.6 | > 100 | 33.1 | > 100 | > 100 | > 100 | > 100 | > 100 | > 100 | > 100 | 93.6 | > 100 |  |  |  | 
2 | CNc1nc(N)nc(Nc2ccc(I)cc2)c1N=O |  | > 100 |  | > 100 |  | > 100 |  |  |  | > 100 |  | > 100 |  |  |  | > 100 | > 100 |  |  | 
3 | C[N+](C)(C)CC(=O)N/N=C(/Cc1cc(=O)oc2cc(O)ccc12)C(=O)Nc1ccc(Cl)cc1 |  | > 100 |  |  |  | > 100 |  | > 100 |  |  |  | > 100 |  | > 100 |  | > 100 | > 100 | > 100 |  | 
4 | COc1ccc(Cl)cc1NC(=O)c1ccc(NC2=C(Cl)C(=O)N(Cc3ccccc3)C2=O)cc1 | 47.4 | > 100 | 10.7 | > 100 | 33.7 | > 100 | > 100 | > 100 |  |  | 25.3 | > 100 |  |  | 37.7 | > 100 | > 100 | > 100 | > 100 | > 100
5 | CSC[C@H](NC(=O)COc1cccc2cnccc12)C(=O)NC(Cc1ccccc1)C(O)C(=O)N1CSC[C@H]1C(=O)NC(C)(C)C (stereo partly specified) |  |  |  | > 100 |  | > 100 |  |  |  | > 100 |  | 63 |  | > 100 |  | > 100 | > 100 | > 100 |  | 
6 | NC(N)=Nc1nc2ccccc2o1 | > 100 | > 100 | > 100 | > 100 | > 100 | > 100 | > 100 | > 100 | > 100 | > 100 | > 100 | > 100 | > 100 | > 100 | > 100 | > 100 | > 100 |  | > 100 | 
7 | CCOc1ccc(NC(=O)CC2SC(=Nc3ccc(C)cc3C)NC2=O)cc1 (stereo unspecified) |  | > 100 |  | > 100 |  | > 100 |  | > 100 |  | > 100 |  | > 100 |  |  |  | > 100 | > 100 | > 100 |  | 
8 | CC1=C(C(=O)Nc2ccccc2)C(c2ccc(Cl)c(Cl)c2)C(C(=O)Nc2ccccc2)=C(C)N1 |  | 28.7 |  | 22.9 |  | 22.6 |  |  |  | 35 |  | 24.9 |  | 31.6 |  | 22.3 | 26.7 | 33.4 |  | 
9 | CCSc1nc(N=Cc2ccccc2O)c2cn[nH]c2n1 | 23.8 | 65.9 | 39.8 | > 100 | 16.4 | 54.7 | 19.3 | 82.4 |  |  | 23.9 | 77.4 | > 100 | > 100 | 25.7 | > 100 | 34.7 | 29.2 | 0.137 | 4.61
10 | CCOC(=O)c1c(C)c2c(n1Cc1ccccc1)CSCC2=O | 11.6 | 23.9 | 19.7 | > 100 | 10.3 | 29.9 | 11 | 52.2 | 18.4 | > 100 | 19.3 | > 100 | 23.8 | > 100 | 11.8 | 31.9 | 49.2 |  | 17.5 | 
11 | O=S(=O)(OI(OI(OS(=O)(=O)C(F)(F)F)c1ccccc1)c1ccccc1)C(F)(F)F |  | 85.4 |  | > 100 |  | > 100 |  | > 100 |  | > 100 |  | > 100 |  |  |  | > 100 | > 100 | > 100 |  | 
12 | COc1cccc2c1O/C(=C\c1ccc([N+](=O)[O-])s1)C2=O | 2.49 | > 100 | 0.474 | 2.34 | 1.36 | 3.23 | > 100 | > 100 | 2.33 | > 32.5 | 2.02 | 4.72 | > 83.9 | > 100 | 2.04 | > 100 |  | > 100 |  | > 100
13 | O/N=C1\CCCCC1C(NO)c1ccccc1 (stereo unspecified) |  |  |  | > 100 |  | > 100 |  |  |  | > 100 |  | > 100 |  | > 100 |  | > 100 | > 100 | > 100 |  | 
14 | COc1cc(C[P+](c2ccccc2)(c2ccccc2)c2ccccc2)cc(OC)c1OC |  | > 100 |  | > 100 |  | > 100 |  | > 100 |  | > 100 |  | > 100 |  | > 100 |  | > 100 | > 100 |  |  | 
15 | COC(=N)c1csc(C2OC(CO)C(O)C2O)n1 (stereo unspecified) |  |  |  | > 100 |  | > 100 |  | > 100 |  |  |  | > 100 |  | > 100 |  | > 100 | > 100 | > 100 |  | 
16 | CCCN(CCC)c1c([N+](=O)[O-])cc(C(=O)N(CC)CC)cc1[N+](=O)[O-] |  | 26.8 |  | 90.9 |  | 69.1 |  | > 100 |  | 82.7 |  | > 100 |  | 96 |  | 27.2 | 40.5 |  |  | 
17 | CCOC(=O)C(Br)=C1OC(=O)c2ccccc2-c2ccccc21 (mixture of isomers) |  | 35.8 |  | 40 |  | 29.5 |  | 32.7 |  | 51 |  | 88.3 |  | > 100 |  | 34 | 37.6 |  |  | 
18 | FC(F)(F)c1ccc2nc(NCc3ccccc3)c(-c3ccccc3)nc2c1 |  |  |  | > 100 |  | > 100 |  |  |  | > 100 |  | > 100 |  | > 100 |  | > 100 | > 100 |  |  | 
19 | Nc1c(S(=O)(=O)c2ccc(Cl)cc2)c2nc3ccccc3nc2n2ccnc12 |  | > 100 |  | > 100 |  |  |  |  |  | 93.2 |  | > 100 |  | > 100 |  | > 100 | > 100 |  |  | 
